Among the test systems are DMS 114 small cell lung; DMS 273 small cell lung; LXFL 529 NSCLC; XF 498 CNS; HOP-18 NSCLC; RXF-631 renal; MDA-N; P388 leukemia; P388/ADR leukemia; SN12K1 renal.
Holding throughout (test): NCI tumour cell line growth inhibition, 48 h

Where “and” joins values, the source holds several entries; their conditions need not be identical. Identical values can stand only once.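 Values below derive from 48-hour exposures of cells grown in 96-well plates, with endpoints linearly interpolated between the two concentrations bracketing the appropriate inhibition level. GI50 marks 50% less growth. TGI marks complete inhibition of growth.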

For `Cc1cccc(C)c1NC(=O)C(=O)Cc1nc2ccccc2s1`, the TGI in the experiment on DMS 114 small cell lung, with DMS 273 small cell lung, in the experiment on LXFL 529 NSCLC and with XF 498 CNS was greater than 100 µM in each case.

`O=C(CC1=Nc2nnc(CCCCCCCc3nnc4n3C(=O)C(CC(=O)c3ccc5ccccc5c3)=N4)n2C1=O)c1ccc2ccccc2c1`: the TGI in the experiment on DMS 114 small cell lung, in the experiment on DMS 273 small cell lung, in the experiment with HOP-18 NSCLC, in the experiment with LXFL 529 NSCLC, in the experiment on RXF-631 renal and in the experiment on XF 498 CNS was greater than 100 µM each time.

On to `Cc1cc(Cl)ccc1NC(=O)CCCC(=O)C1C/C(=N/O)CC/C1=N\O` (centres undefined), for which the TGI in the experiment on DMS 114 small cell lung, in the experiment on DMS 273 small cell lung, in the experiment with HOP-18 NSCLC, with LXFL 529 NSCLC, with RXF-631 renal and in the experiment on XF 498 CNS was greater than 100 µM each time.

In the case of `COC1(OC)C2(Cl)C3=CCCC=C3C1(Cl)C(Cl)=C2Cl`, the TGI with DMS 114 small cell lung is 49.9 µM; in the experiment with DMS 273 small cell lung, 39.8 µM; with LXFL 529 NSCLC, greater than 100 µM; with RXF-631 renal it was 30.3 µM; in the experiment on XF 498 CNS, 50.2 µM.

Regarding `Oc1ccc(Cl)cc1C=Nc1cnc2ccccc2c1`, the TGI in the experiment on MDA-N was greater than 100 µM.

As to `N=C1CCCC1C(=S)SCCC(N)=O` (centres undefined), the TGI in the experiment with MDA-N was greater than 100 µM.

As for `O=C1CC23CCCCCCCCCCC2(C1)CC(=O)C3` (centres undefined), the TGI in the experiment on DMS 114 small cell lung was 77.6 µM; in the experiment with DMS 273 small cell lung it was 52.5 µM; in the experiment with HOP-18 NSCLC, 92.7 µM; with LXFL 529 NSCLC, greater than 100 µM; in the experiment on XF 498 CNS, 49.2 µM.

Turning to `COc1ccc(-c2ccc(CC(=O)O)cc2)cc1OC`, the TGI with DMS 114 small cell lung, in the experiment on LXFL 529 NSCLC and in the experiment on XF 498 CNS was greater than 100 µM throughout.

In the case of `CC(=O)N1[C@H](C(=O)O)CS[C@H]1c1ccc(F)cc1`, the TGI in the experiment on DMS 114 small cell lung, with HOP-18 NSCLC, in the experiment with LXFL 529 NSCLC and with RXF-631 renal was greater than 100 µM throughout.

Take `CC1CCC2C(C)C(=O)OC2C2(C)C(=O)C=CC12` (centres undefined): in the experiment with MDA-N, the TGI was greater than 10 µM.

Consider `COC(=O)C1CC(c2ccc(OC)c(OC)c2)OC1=O` (mixture of isomers), for which the TGI with DMS 114 small cell lung, in the experiment with DMS 273 small cell lung, in the experiment on LXFL 529 NSCLC, in the experiment on RXF-631 renal and in the experiment on XF 498 CNS was greater than 100 µM each time.

In the case of `C1=CC(=P(c2ccccc2)(c2ccccc2)c2ccccc2)C=C1`, the TGI with DMS 114 small cell lung came to 15.9 µM; in the experiment with DMS 273 small cell lung it was 26.4 µM; in the experiment on LXFL 529 NSCLC it was 13 µM; with RXF-631 renal, 46.7 µM; with XF 498 CNS, 12.6 µM.

Regarding `COC(=O)C1C=CCC2CCCCC21N1CCCC1` (centres undefined), the TGI with DMS 114 small cell lung, with DMS 273 small cell lung, in the experiment on HOP-18 NSCLC, with LXFL 529 NSCLC and with RXF-631 renal was greater than 100 µM in each case.

In the case of `Cc1nnc2n1N=C(c1ccccc1)C(c1ccccc1)S2` (centres undefined), the TGI with DMS 114 small cell lung is 52.4 µM; in the experiment on DMS 273 small cell lung, greater than 100 µM; with HOP-18 NSCLC, greater than 100 µM; in the experiment on LXFL 529 NSCLC it was greater than 100 µM; in the experiment on XF 498 CNS, greater than 100 µM.

In the experiment on MDA-N, `NCCO/C=C/C(N)C(=O)O` (centres undefined) yielded a TGI greater than 100 µM.

For the compound `COc1cc(C)c2c(c1)CN1CN2Cc2cc(OC)cc(C)c21`, the figures for the TGI in the experiment with DMS 114 small cell lung, with DMS 273 small cell lung and with LXFL 529 NSCLC were 75.1 µM, greater than 100 µM and greater than 100 µM, respectively.

Consider `CC(=O)Nc1ccc(C2CC(c3ccc([N+](=O)[O-])cc3)=Nc3ccccc3S2)cc1` (centres undefined), for which the TGI in the experiment on DMS 273 small cell lung was 71.4 µM; with HOP-18 NSCLC, 78.2 µM; in the experiment with LXFL 529 NSCLC it was 41.7 µM; in the experiment with RXF-631 renal, 70 µM; in the experiment on XF 498 CNS, 27 µM.

In turn, `Clc1ccccc1C(Nc1cnccn1)Nc1cnccn1` displayed a TGI in the experiment on MDA-N greater than 100 µM.

As to `N#C/C(=C\c1ccc2[nH]ccc2c1)C(=O)NCCCCNC(=O)/C(C#N)=C/c1ccc2[nH]ccc2c1`, the TGI with DMS 114 small cell lung was greater than 100 µM; in the experiment with DMS 273 small cell lung, greater than 100 µM; with LXFL 529 NSCLC it was greater than 100 µM; with MDA-N, greater than 10 µM; in the experiment on XF 498 CNS, greater than 100 µM.

For `N/N=C(/Cc1ccccc1)NNO`, the TGI in the experiment with DMS 114 small cell lung, in the experiment on DMS 273 small cell lung, with HOP-18 NSCLC, in the experiment on LXFL 529 NSCLC and in the experiment on RXF-631 renal was greater than 100 µM in each case.

Regarding `CC(C)(C)C#COC(=O)c1ccccc1`, the TGI in the experiment on DMS 114 small cell lung and in the experiment with LXFL 529 NSCLC was greater than 100 µM each time.

`CC(C)Cc1cnc(CC(C)C)c(=O)[nH]1`: in the experiment on MDA-N, the TGI is greater than 100 µM.

Consider `CN1CCCC2[C@@H]3CCC4c5nonc5CC[C@]4(C)C3CC[C@@]21C` (some centres undefined), for which the TGI is greater than 100 µM in the experiment on DMS 114 small cell lung; greater than 100 µM with DMS 273 small cell lung; greater than 100 µM in the experiment with HOP-18 NSCLC; greater than 100 µM with LXFL 529 NSCLC; 81.8 µM with XF 498 CNS.

As to `c1ccc2c(c1)[nH]c1c2nc2ccccn21`, the TGI in the experiment on DMS 114 small cell lung, in the experiment on DMS 273 small cell lung, with HOP-18 NSCLC, in the experiment with LXFL 529 NSCLC, in the experiment on RXF-631 renal and in the experiment on XF 498 CNS was greater than 100 µM in each case.

On to `Cn1c(=O)oc2cc(C3CCC(=O)N3Cc3csc(-c4ccccc4)n3)ccc21` (centres undefined), for which the TGI in the experiment on DMS 114 small cell lung, in the experiment on DMS 273 small cell lung, in the experiment on HOP-18 NSCLC, in the experiment with LXFL 529 NSCLC and in the experiment on XF 498 CNS was greater than 100 µM in each case.

Regarding `Cc1ccc(C2=CC(=O)c3ccccc3C2=O)n1-c1ccccc1`, the TGI is 55.2 µM in the experiment on DMS 114 small cell lung; greater than 100 µM in the experiment with DMS 273 small cell lung; greater than 100 µM in the experiment with HOP-18 NSCLC; greater than 100 µM with LXFL 529 NSCLC; greater than 100 µM in the experiment with XF 498 CNS.

Consider `Cc1cc2c(c(C(=O)O)c1C)-c1cccc(Cl)c1C2=O`, for which the TGI in the experiment with DMS 114 small cell lung, with DMS 273 small cell lung, with LXFL 529 NSCLC and in the experiment with XF 498 CNS was greater than 100 µM in each case.

As to `Cc1n[nH]c2ccccc2c1=O`, in the experiment on MDA-N, the TGI was greater than 100 µM.

`[N-]=[N+]=CC(=O)CCC(N)C(=O)O` (centres undefined): the TGI with DMS 114 small cell lung was 95.5 µM; in the experiment with DMS 273 small cell lung, greater than 250 µM; in the experiment with HOP-18 NSCLC it was greater than 250 µM; in the experiment with MDA-N it was greater than 250 µM; in the experiment on P388 leukemia, 21.9 µM; in the experiment with P388/ADR leukemia, 30.4 µM. The TGI with SN12K1 renal is 141 µM; with XF 498 CNS it was 230 µM. The GI50 in the experiment on MDA-N is 2.26 µM.

For the compound `COc1ccc(-c2nc3ccccc3s2)cc1OC`, the TGI in the experiment with MDA-N was greater than 100 µM.

As to `O=c1c(Cc2ccccc2)c(O)cc2n1CCC2`, the TGI in the experiment with DMS 114 small cell lung, in the experiment on HOP-18 NSCLC, in the experiment with LXFL 529 NSCLC, in the experiment with RXF-631 renal and in the experiment on XF 498 CNS was greater than 100 µM in each case.

With `Cc1c(C)c([N+](=O)[O-])c2c(c1N)C(=O)c1ccccc1C2=O`, the TGI with DMS 114 small cell lung, in the experiment on DMS 273 small cell lung, in the experiment on HOP-18 NSCLC, with LXFL 529 NSCLC and in the experiment on XF 498 CNS was greater than 100 µM in each case.

Compound `Cc1cccc(C2NC(=O)c3ccccc3N2)c1` (centres undefined) had a TGI in the experiment on MDA-N of 3.45 µM.

For the compound `O=c1c2cccnc2ncn1CCCN1CCCCC1`, the TGI in the experiment with DMS 114 small cell lung, with DMS 273 small cell lung and in the experiment on XF 498 CNS was greater than 100 µM each time.

Turning to `OCC(O)C(O)C(O)C(/C=N\Nc1ncnc2c(Br)cc(Br)cc12)=N/Nc1ncnc2c(Br)cc(Br)cc12` (centres undefined), the TGI in the experiment with MDA-N is 23.2 µM and > 100 µM.

For `CCOc1c(Br)cc(Br)cc1C=C(C#N)C#N`, in the experiment on MDA-N, the TGI is greater than 10 µM.

Turning to `O=c1[nH]ccc(CNC23CC4CC(CC(C4)C2)C3)c1O`, the TGI in the experiment on DMS 273 small cell lung, in the experiment on HOP-18 NSCLC, in the experiment on LXFL 529 NSCLC and in the experiment with XF 498 CNS was greater than 100 µM in each case.

Take `O=C(c1ccccc1)C1N=NN(Cc2ccccc2[N+](=O)[O-])C1C(=O)c1ccccc1` (centres undefined): the TGI in the experiment on DMS 114 small cell lung, with DMS 273 small cell lung, with HOP-18 NSCLC and with LXFL 529 NSCLC was greater than 100 µM throughout.

As for `O=C1NC(O)n2c(=O)[nH]c(=O)n21` (centres undefined), the TGI in the experiment on DMS 273 small cell lung, in the experiment with HOP-18 NSCLC, in the experiment with LXFL 529 NSCLC, in the experiment with RXF-631 renal and in the experiment on XF 498 CNS was greater than 100 µM each time.

Turning to `C[C@@H]1C[C@@H]([C@H](O)CC2CC(=O)NC(=O)C2)C(=O)[C@@H](C)C1`, the TGI in the experiment on DMS 114 small cell lung stood at 1.79 µM; with LXFL 529 NSCLC, 0.623 µM; in the experiment on RXF-631 renal, 0.608 µM; in the experiment on XF 498 CNS, 0.504 µM.

Compound `O=c1c(-c2ccc3c(c2)OCO3)coc2c3c(ccc12)OCO3` came in with a TGI with MDA-N greater than 100 µM.

Source of the values: PubChem BioAssay (NCI).
